Test results taken from US12629348B2, “Method and composition for treating osteoarthritis” (Vireo Systems, Inc., priority 2013, dated 2026).
“Also recorded” adds a separate entry of the source.

Experiments:
[1] = test system: PGE2; assay: Plasma PGE2 (PGE2 metabolite competitive EIA) in OA canines; format: in vivo, canine; settings: 36 mg/kg/day oral
Procedure: The double-blind study was performed on a total of 30 adult canines of various breeds in five different private practice clinics. Owner consent was obtained prior to participation in the study. Each clinic was responsible for enrolling 6 canines into the study. Inclusion criteria for the study consisted of clinical assessment and radiograph confirmation of OA in at least one joint and a score of 22 or greater on the Helsinki chronic pain index (“HCPI”). Use of NSAIDs or other dietary supplements for OA were allowed, provided the current treatment regimens had not been altered for a period of at least three months. […]
In addition to the standard blood chemistry profile, blood samples taken before and at the conclusion of the two-week trial period were analyzed for PGE2 and SAA. […] Both plasma and serum samples were centrifuged at 2000×g for 10 minutes and the plasma and serum supernatants removed and frozen at […] until analyzed for PGE2 and SAA using enzyme-linked immunosorbent assays (“HA”). […] Plasma samples were analyzed for PGE2 using the bicycle PGE2 competitive EIA kit purchased from Cayman Chemical (Ann Arbor, MI). The assay converts PGE2 metabolites into a stable derivative that is measured using EIA. Samples (100 μl) were analyzed in triplicate and PGE2 concentrations determined by use of standard curve. […]

[2] = test system: cultured canine chondrocytes; assay: PGE2 release in cultured canine chondrocytes challenged with IL1b; format: cell-based; settings: 100 μM, IL1b challenge, FIG. 3
Procedure: The study involved the use of cultured canine chondrocytes (i.e., cells within the joint that are activated during OA). The canine chondrocytes were subjected to an inflammatory challenge in the form of cytokine Interleukin 1 beta (“IL1b”). The canine chondrocytes were then treated with various anti-inflammatory compounds including Alpha-GEE; glucosamine; a TNFα receptor antagonist; and a NSAID (Rimadyl). Alpha-GEE was administered in concentrations ranging from 10 μM to 1000 μM. The resulting effects of the various treatments on both PGE2 release and TNFα release were examined.
Alpha-GEE, glucosamine, and Rimadyl were used in a concentration of 100 μM, while the TNFα inhibitor was used in a concentration of 1 μM. Based on all of the treatments examined (i.e., Alpha-GEE; glucosamine; NSAID (Rimadyl); and TNFα receptor antagonist), Alpha-GEE produced the most dramatic decrease in PGE2 at the early 4-hour time point. […] The reduction in PGE2 release at the early 4 hour time point was greater than that observed with the NSAID, Rimadyl, glucosamine, or TNFα receptor blocker. The maximal effect of Alpha-GEE on PGE2 release from chondrocytes was observed within 8 hours, where a 75% reduction in PGE2 release was observed.

[3] = test system: brain endothelial cells; assay: Release of PGE2 from brain endothelial cells exposed to bacterial endotoxin; format: cell-based; settings: FIG. 1
Text: The brain endothelial cells were first exposed to bacterial endotoxin.

[4] = test system: canines having OA; assay: Double-blind randomized trial in OA canines: daily activity by pedometer; format: in vivo, canine; settings: 36 mg/kg/day oral
Procedure: The double-blind study was performed on a total of 30 adult canines of various breeds in five different private practice clinics. Owner consent was obtained prior to participation in the study. Each clinic was responsible for enrolling 6 canines into the study. Inclusion criteria for the study consisted of clinical assessment and radiograph confirmation of OA in at least one joint and a score of 22 or greater on the Helsinki chronic pain index (“HCPI”). Use of NSAIDs or other dietary supplements for OA were allowed, provided the current treatment regimens had not been altered for a period of at least three months. […] Canines participating in the study were also fitted with pedometers (Draco Tech International, Taiwan) to quantitatively track changes in daily activity during the course of the study. […] The pedometers were fitted onto the collars at the clinic, and owners were instructed on care and maintenance of the pedometers and provided a log book to record the daily pedometer readings. Pedometer readings were recorded on a daily basis starting one week prior to the study and continuing throughout the two-week trial period. The daily pedometer readings recorded throughout an entire week (7-day period) were used to determine the average daily activity during the baseline period (one week prior to the start of the study) and the first and second weeks of the trial. […]

Q: “ethyl (α-guanido-methyl) ethanoate [Alpha-GEE]” was tested. Which “PGE2 plasma concentration, post-trial” value ([1]; mean ± SD after two weeks, pre-trial 268 ± 11) did it give?
A: 264 ± 10 pg/mL

Q: What about the “difference between pre-trial and post-trial plasma levels of PGE2” value ([1]; two-week trial, 36 mg/kg/day) of the same substance?
A: No significant differences; also recorded: no difference

Q: And the “reduction in PGE2 release from canine chondrocytes” value ([2]; 4 hours)?
A: approximately 60%

Q: And the “reduction in PGE2 release from canine chondrocytes (maximal effect)” value ([2]; within 8 hours)?
A: 75%

Q: And the “reduction in the release of PGE2 from brain endothelial cells” value ([3]; concentration of about 20 μM or more)?
A: ≥ 50%

Q: What about the “reduction in the release of PGE2 from brain endothelial cells” value ([3]; concentration of about 1000 μM or more) of the same substance?
A: greater than 50%

Q: What about the “increase in daily pedometer readings (mobility)” value ([4]; first week versus baseline week, p<0.05 vs placebo) of the same substance?
A: approximately 20%

Q: What about the “increase in daily pedometer readings (mobility, physical activity)” value ([4]; second week versus baseline week, p<0.01 vs placebo) of the same substance?
A: approximately 30%
